Assay results: patent publication US5300491A, “Treatment of protozoal infection” (priority 1992, dated 1994)
Where two headings read alike, the source gives them in different places.

Test system: Entamoeba histolytica
Type: cell-based
Excerpt: E. histolytica isolates representing three distinct zymodemes (I, II or XIV) were derived from a range of geographical locations. The patients from whom the isolates were obtained were either pathogenic (i.e. presented dysentery), or non-pathogenic (i.e., presented a non-dysenteric stage of infection characterized by passing of cysts or trophozoites). The following table identifies the E. histolytica isolates in accordance with the above criteria:
Each isolate was a xenic culture, i.e., it contained, in addition to the E. histolytica amoeba, the normally occurring patient faecal microflora. The cultures were maintained according to the method of Robinson, Trans. Roy. Soc. Trop. Med. Hyg. 62, 285-94, (1968). Bacitracin (70 I.U./mg) and its zinc salt (65 I.U./mg) were obtained from Apothekernes Laboratorium A.S (Oslo, Norway). Following microtitre-assay standardization and pilot testing of the drugs (results not presented), the following assay procedure was established. Bacitracin was screened over the range of 20.0-0.625 mg/ml by doubling dilution. 30 mg/ml bacitracin was also examined. […] The remaining wells were run as controls. An initial stock solution of 75 mg/ml bacitracin was prepared in starch-free Robinson medium (SFRM) . Subsequent to loading the first set of wells, the stock was diluted with SFRM to 50 mg/ml, which was used to prepare the remaining concentrations. […] 100 μl volumes of both drugs were then double-diluted in SFRM to provide 2.5X concentrates of the required final concentrations in the microtitre plates. 50 μl of a 25 mg% starch (BDH) solution (in SFRM) was then added to each well. 16-18 hours before the end of the required 48-hour culture period, the amoeba isolates were passaged to fresh tubes containing starch-free Robinson medium. At the end of the culture period, the amoebae were harvested in a small volume of medium and resuspended in at least 20 volumes SFRM. The suspensions were centrifuged at 1000 rpm for 5 minutes prior to re-suspension in fresh medium and counted in a modified Neubauer chamber. Amoebae were centrifuged as before and the pellet resuspended to a concentration of 2.5×10^4 /ml SFRM. 100 μl aliquots were then pipetted into respective wells to provide duplicate cultures of each isolate for each concentration assayed. The plates were then placed in an anaerobic chamber (HP11, Oxoid) at 37° C. for 24 hours. While this procedure provided sufficient starch for the amoebae, the concentration was such that at 24 hours the plates were easily read and quantitified by direct observation using an inverted microscope. Viability was assessed by the addition of Trypan blue to a final concentration of 0.1%.
Readings from each of the studies were collected and stored until all three experiments were completed in order to reduce any bias in subsequent readings. Minimun inhibitory and minimum lethal concentrations were given in mg/ml. […]

[1] = span over all xenic isolates and studies
[2] = xenic isolate 70k, Experiment 1
[3] = xenic isolate 70k, Experiment 2
[4] = xenic isolate 70k, Experiment 3
[5] = xenic isolate 116k, Experiment 1
[6] = xenic isolate 116k, Experiment 2
[7] = xenic isolate 116k, Experiment 3
[8] = xenic isolate 418, Experiment 1
[9] = xenic isolate 418, Experiment 2
[10] = xenic isolate 418, Experiment 3
[11] = xenic isolate 1246, Experiment 1
[12] = xenic isolate 1246, Experiment 2
[13] = xenic isolate 1246, Experiment 3
[14] = xenic isolate AiDO, Experiment 1
[15] = xenic isolate AiDO, Experiment 2
[16] = xenic isolate AiDO, Experiment 3
[17] = xenic isolate BiLO, Experiment 1
[18] = xenic isolate BiLO, Experiment 3
[19] = xenic isolate DOGO, Experiment 1
[20] = xenic isolate DOGO, Experiment 2
[21] = xenic isolate DOGO, Experiment 3
[22] = xenic isolate OMAk, Experiment 1
[23] = xenic isolate OMAk, Experiment 3
[24] = xenic isolate Sh2, Experiment 1
[25] = xenic isolate Sh2, Experiment 2
[26] = xenic isolate Sh2, Experiment 3
[27] = xenic isolate T2k, Experiment 1
[28] = xenic isolate T2k, Experiment 2
[29] = xenic isolate T2k, Experiment 3
[30] = xenic isolate URU1, Experiment 1
[31] = xenic isolate URU1, Experiment 2
[32] = xenic isolate URU1, Experiment 3
[33] = xenic isolate URU19, Experiment 1
[34] = xenic isolate URU19, Experiment 3

Substance: Zinc bacitracin
- concentration at which precipitation occurred (in the xenic culture assay medium): ≥ 5000 µg/mL
- MICs [1]: 0.16 to 1.25 mg/mL
- MLCs [1]: 1.25 to 5.0 mg/mL
- Minimum Lethal Concentration (MLC) (xenic Isolate 1, single study over a narrower range of drug concentration (Table 4)): 1600 µg/mL
- Minimum Lethal Concentration (MLC) (xenic Isolate C1, single study over a narrower range of drug concentration (Table 4)): 1400 µg/mL
- Minimum Inhibitory Concentration (MIC) (xenic isolate 1, Experiment 1): 630 µg/mL
- Minimum Lethal Concentration (MLC) (xenic isolate 1, Experiment 1): 2500 µg/mL
- Minimum Inhibitory Concentration (MIC) (xenic isolate 1, Experiment 2): 1250 µg/mL
- Minimum Lethal Concentration (MLC) (xenic isolate 1, Experiment 2): 2500 µg/mL
- Minimum Inhibitory Concentration (MIC) (xenic isolate 1, Experiment 3): 310 µg/mL
- Minimum Lethal Concentration (MLC) (xenic isolate 1, Experiment 3): 2500 µg/mL
- Minimum Inhibitory Concentration (MIC) [2]: 630 µg/mL
- Minimum Lethal Concentration (MLC) [2]: 2500 µg/mL
- Minimum Inhibitory Concentration (MIC) [3]: 630 µg/mL
- Minimum Lethal Concentration (MLC) [3]: 2500 µg/mL
- Minimum Inhibitory Concentration (MIC) [4]: 630 µg/mL
- Minimum Lethal Concentration (MLC) [4]: 2500 µg/mL
- Minimum Inhibitory Concentration (MIC) [5]: 630 µg/mL
- Minimum Lethal Concentration (MLC) [5]: 2500 µg/mL
- Minimum Inhibitory Concentration (MIC) [6]: 310 µg/mL
- Minimum Lethal Concentration (MLC) [6]: 1250 µg/mL
- Minimum Inhibitory Concentration (MIC) [7]: 310 µg/mL
- Minimum Lethal Concentration (MLC) [7]: 2500 µg/mL
- Minimum Inhibitory Concentration (MIC) [8]: 630 µg/mL
- Minimum Lethal Concentration (MLC) [8]: 5000 µg/mL
- Minimum Inhibitory Concentration (MIC) [9]: 310 µg/mL
- Minimum Lethal Concentration (MLC) [9]: 2500 µg/mL
- Minimum Inhibitory Concentration (MIC) [10]: 310 µg/mL
- Minimum Lethal Concentration (MLC) [10]: 2500 µg/mL
- Minimum Inhibitory Concentration (MIC) [11]: 160 µg/mL
- Minimum Lethal Concentration (MLC) [11]: 2500 µg/mL
- Minimum Inhibitory Concentration (MIC) [12]: 630 µg/mL
- Minimum Lethal Concentration (MLC) [12]: 2500 µg/mL
- Minimum Inhibitory Concentration (MIC) [13]: 310 µg/mL
- Minimum Lethal Concentration (MLC) [13]: 1250 µg/mL
- Minimum Inhibitory Concentration (MIC) [14]: 630 µg/mL
- Minimum Lethal Concentration (MLC) [14]: 2500 µg/mL
- Minimum Inhibitory Concentration (MIC) [15]: 160 µg/mL
- Minimum Lethal Concentration (MLC) [15]: 2500 µg/mL
- Minimum Inhibitory Concentration (MIC) [16]: 160 µg/mL
- Minimum Lethal Concentration (MLC) [16]: 2500 µg/mL
- Minimum Inhibitory Concentration (MIC) [17]: 310 µg/mL
- Minimum Lethal Concentration (MLC) [17]: 2500 µg/mL
- Minimum Inhibitory Concentration (MIC) [18]: 310 µg/mL
- Minimum Lethal Concentration (MLC) [18]: 2500 µg/mL
- Minimum Inhibitory Concentration (MIC) (xenic isolate C1, Experiment 1): 1250 µg/mL
- Minimum Lethal Concentration (MLC) (xenic isolate C1, Experiment 1): 2500 µg/mL
- Minimum Inhibitory Concentration (MIC) (xenic isolate C1, Experiment 2): 310 µg/mL
- Minimum Lethal Concentration (MLC) (xenic isolate C1, Experiment 2): 2500 µg/mL
- Minimum Inhibitory Concentration (MIC) (xenic isolate C1, Experiment 3): 310 µg/mL
- Minimum Lethal Concentration (MLC) (xenic isolate C1, Experiment 3): 2500 µg/mL
- Minimum Inhibitory Concentration (MIC) (xenic isolate C2, Experiment 1): 630 µg/mL
- Minimum Lethal Concentration (MLC) (xenic isolate C2, Experiment 1): 2500 µg/mL
- Minimum Inhibitory Concentration (MIC) (xenic isolate C2, Experiment 2): 630 µg/mL
- Minimum Lethal Concentration (MLC) (xenic isolate C2, Experiment 2): 2500 µg/mL
- Minimum Inhibitory Concentration (MIC) (xenic isolate C2, Experiment 3): 310 µg/mL
- Minimum Lethal Concentration (MLC) (xenic isolate C2, Experiment 3): 2500 µg/mL
- Minimum Inhibitory Concentration (MIC) (xenic isolate DA, Experiment 1): 630 µg/mL
- Minimum Lethal Concentration (MLC) (xenic isolate DA, Experiment 1): 2500 µg/mL
- Minimum Inhibitory Concentration (MIC) (xenic isolate DA, Experiment 2): 630 µg/mL
- Minimum Lethal Concentration (MLC) (xenic isolate DA, Experiment 2): 2500 µg/mL
- Minimum Inhibitory Concentration (MIC) (xenic isolate DA, Experiment 3): 630 µg/mL
- Minimum Lethal Concentration (MLC) (xenic isolate DA, Experiment 3): 2500 µg/mL
- Minimum Inhibitory Concentration (MIC) [19]: 160 µg/mL
- Minimum Lethal Concentration (MLC) [19]: 2500 µg/mL
- Minimum Inhibitory Concentration (MIC) [20]: 310 µg/mL
- Minimum Lethal Concentration (MLC) [20]: 2500 µg/mL
- Minimum Inhibitory Concentration (MIC) [21]: 310 µg/mL
- Minimum Lethal Concentration (MLC) [21]: 1250 µg/mL
- Minimum Inhibitory Concentration (MIC) (xenic isolate GS, Experiment 1): 630 µg/mL
- Minimum Lethal Concentration (MLC) (xenic isolate GS, Experiment 1): 2500 µg/mL
- Minimum Inhibitory Concentration (MIC) (xenic isolate GS, Experiment 2): 630 µg/mL
- Minimum Lethal Concentration (MLC) (xenic isolate GS, Experiment 2): 2500 µg/mL
- Minimum Inhibitory Concentration (MIC) (xenic isolate GS, Experiment 3): 310 µg/mL
- Minimum Lethal Concentration (MLC) (xenic isolate GS, Experiment 3): 2500 µg/mL
- Minimum Inhibitory Concentration (MIC) (xenic isolate MS, Experiment 1): 630 µg/mL
- Minimum Lethal Concentration (MLC) (xenic isolate MS, Experiment 1): 2500 µg/mL
- Minimum Inhibitory Concentration (MIC) (xenic isolate MS, Experiment 2): 630 µg/mL
- Minimum Lethal Concentration (MLC) (xenic isolate MS, Experiment 2): 1250 µg/mL
- Minimum Inhibitory Concentration (MIC) (xenic isolate MS, Experiment 3): 630 µg/mL
- Minimum Lethal Concentration (MLC) (xenic isolate MS, Experiment 3): 2500 µg/mL
- Minimum Inhibitory Concentration (MIC) [22]: 310 µg/mL
- Minimum Lethal Concentration (MLC) [22]: 2500 µg/mL
- Minimum Inhibitory Concentration (MIC) [23]: 160 µg/mL
- Minimum Lethal Concentration (MLC) [23]: 2500 µg/mL
- Minimum Inhibitory Concentration (MIC) (xenic isolate SI, Experiment 1): 630 µg/mL
- Minimum Lethal Concentration (MLC) (xenic isolate SI, Experiment 1): 2500 µg/mL
- Minimum Inhibitory Concentration (MIC) (xenic isolate SI, Experiment 3): 630 µg/mL
- Minimum Lethal Concentration (MLC) (xenic isolate SI, Experiment 3): 2500 µg/mL
- Minimum Inhibitory Concentration (MIC) [24]: 630 µg/mL
- Minimum Lethal Concentration (MLC) [24]: 2500 µg/mL
- Minimum Inhibitory Concentration (MIC) [25]: 630 µg/mL
- Minimum Lethal Concentration (MLC) [25]: 2500 µg/mL
- Minimum Inhibitory Concentration (MIC) [26]: 310 µg/mL
- Minimum Lethal Concentration (MLC) [26]: 2500 µg/mL
- Minimum Inhibitory Concentration (MIC) [27]: 630 µg/mL
- Minimum Lethal Concentration (MLC) [27]: 5000 µg/mL
- Minimum Inhibitory Concentration (MIC) [28]: 310 µg/mL
- Minimum Lethal Concentration (MLC) [28]: 5000 µg/mL
- Minimum Inhibitory Concentration (MIC) [29]: 160 µg/mL
- Minimum Lethal Concentration (MLC) [29]: 2500 µg/mL
- Minimum Inhibitory Concentration (MIC) (xenic isolate T4, Experiment 1): 310 µg/mL
- Minimum Lethal Concentration (MLC) (xenic isolate T4, Experiment 1): 2500 µg/mL
- Minimum Inhibitory Concentration (MIC) (xenic isolate T4, Experiment 2): 310 µg/mL
- Minimum Lethal Concentration (MLC) (xenic isolate T4, Experiment 2): 2500 µg/mL
- Minimum Inhibitory Concentration (MIC) (xenic isolate T4, Experiment 3): 160 µg/mL
- Minimum Lethal Concentration (MLC) (xenic isolate T4, Experiment 3): 2500 µg/mL
- Minimum Inhibitory Concentration (MIC) (xenic isolate T6, Experiment 1): 310 µg/mL
- Minimum Lethal Concentration (MLC) (xenic isolate T6, Experiment 1): 2500 µg/mL
- Minimum Inhibitory Concentration (MIC) (xenic isolate T6, Experiment 2): 630 µg/mL
- Minimum Lethal Concentration (MLC) (xenic isolate T6, Experiment 2): 2500 µg/mL
- Minimum Inhibitory Concentration (MIC) (xenic isolate T6, Experiment 3): 310 µg/mL
- Minimum Lethal Concentration (MLC) (xenic isolate T6, Experiment 3): 2500 µg/mL
- Minimum Inhibitory Concentration (MIC) [30]: 630 µg/mL
- Minimum Lethal Concentration (MLC) [30]: 2500 µg/mL
- Minimum Inhibitory Concentration (MIC) [31]: 1250 µg/mL
- Minimum Lethal Concentration (MLC) [31]: 2500 µg/mL
- Minimum Inhibitory Concentration (MIC) [32]: 630 µg/mL
- Minimum Lethal Concentration (MLC) [32]: 2500 µg/mL
- Minimum Inhibitory Concentration (MIC) [33]: 630 µg/mL
- Minimum Lethal Concentration (MLC) [33]: 2500 µg/mL
- Minimum Inhibitory Concentration (MIC) [34]: 310 µg/mL
- Minimum Lethal Concentration (MLC) [34]: 2500 µg/mL
